These results are taken from patent US20160051514A1, “METHODS FOR TREATMENT OF CARDIOMYOPATHY” (THE BRIGHAM AND WOMEN'S HOSPITAL, INC., priority 2013, published 2016).

In the assay the test system is zebrafish ventricular myocytes expressing 2057del2 plakoglobin. In words: INa and IK1 current densities by whole-cell voltage-clamp in zebrafish ventricular myocytes. Type of assay: cell-based, zebrafish (Danio rerio). The following applies: for Effect on reduced INa and IK1 current densities (summary statements): myocytes expressing 2057del2 plakoglobin, after exposure.
Text: (§1) Zebrafish ventricular myocyte isolation and culture: Zebrafish (Danio rerio) were bred and maintained at 28′C with 14 hr exposure to light and 10 hr to dark (day/night cycle) according to IACUC-approved protocols. Hearts were extracted from anesthetized fish at 21-56 days post-fertilization(dpf) using micro-dissecting tweezers (Roboz Surgical Instruments), washed vigorously in culture medium (M199, primocin, HEPES, L-glutamine, 10% fetal bovine serum) and placed in fresh medium. Ventricles were separated at the atrio-ventricular junction, pooled in a tube containing enzyme solution (HBSS without calcium/magnesium, Trypsin, PCN/Streptomycin, HEPES) at 37° C. and agitated in a thermomixer at 1000-1200 RPM. Dissociated cells were collected every 10 min from supernatants and transferred to tubes containing culture medium and 10% fetal bovine srum to halt trypsinization. Cells were then pelleted by centrifugation, resuspended in fresh culture medium, and seeded on sterile cover slips coated with laminin (20 μg/ml)^11 at 28° C. in a 5% CO2 incubator. After 36 hr, culture medium was changed and unattached cells were removed.
INa and INa activation and inactivation were measured by whole-cell voltage-clamp according to standard protocols.^14,15 Cells were held at a membrane potential of −80 mV after which pulses between -120 and +50 mV were applied in 5 mV steps each with a duration of 250 ms. Inactivation was measured from membrane potentials between −120 mV and +50 mV at maximal activation.^14,15 In view of the small cell size (cell capacitance of 6.7±2.6pF; n=47) it was not necessary to reduce extracellular [Nal. Access resistance of the patch electrodes was <7 MΩ Measurements showing incomplete control of membrane potential were eliminated from analysis.^14,15
The inward rectifier current IK1 was measured using the protocol described by Dobrev.^16,17 Ramp clamps of 1400 ms duration were applied between −120 and +20 mV. After each clamp, external solution containing Ba^2+(1 mM) was applied via a large pore pipette placed adjacent to the clamped cell. IK1 was defined as the total current minus the Ba^2+-insensitive current. ^16 Subtraction of the two currents was performed using a MatLab™ script.
as §1, with “culture:” for “culture: Zebrafish (Danio rerio) were bred and maintained at 28′C with 14 hr exposure to light and 10 hr to dark (day/night cycle) according to IACUC-approved protocols.”, “3-4 or 5-7 weeks post-fertilization” for “21-56 days post-fertilization(dpf)”, “(calcium/magnesium free-HBSS containing trypsin, penicillin/streptomycin,” for “(HBSS without calcium/magnesium, Trypsin, PCN/Streptomycin,”, “serum” for “srum”, “μg/ml)” for “μg/ml)^11”, “28.5°” for “28°”
INa activation and inactivation were measured by whole-cell voltage-clamp according to standard protocols (32,33). Cells were held at a membrane potential of −80 mV after which pulses between −120 and +50 mV were applied in 5 mV steps each with a duration of 250 ms. Inactivation was measured from membrane potentials between −120 mV and +50 mV at maximal activation (26,33). In view of the small size of zebrafish myocytes (cell capacitance of 6.7±2.6pF; n=47) it was not necessary to reduce extracellular [Na+] to achieve voltage control; extracellular [Na+] was reduced to 50 mM in studies of neonatal rat ventricular myocytes Access resistance of the patch electrodes was <7 MΩ. Measurements showing incomplete control of membrane potential were eliminated from analysis. […]

The mark [1] stands for this setting: 3-4 weeks post-fertilization, 2057del2 plakoglobin + SB2.
The mark [2] stands for this setting: 3-4 weeks post-fertilization, Control + SB2.

SMILES strings stand for the structures. “Also recorded” adds a separate entry of the source.

For `Cn1cc(C2=C(c3ccc(Cl)cc3Cl)C(=O)NC2=O)c2ccccc21` [SB216763], the “Effect on reduced INa and IK1 current densities (summary statements)” value is reported as “rapidly normalized”. Under setting [1], the “IK1: current density at −100 mV” value is listed as −15 pA/pF; the “IK1: slope between −90 and −15 mV” value is on record as −21 pA/pF*100 mV; the “INa: peak current density” value was −163 pA/pF. In addition, under setting [2], the “IK1: current density at −100 mV” value is −18 pA/pF; the “IK1: slope between −90 and −15 mV” value was −27 pA/pF*100 mV; the “INa: peak current density” value was −230 pA/pF. Moreover, the “INa: peak current density” value (7-8 weeks post-fertilization, 2057del2 plakoglobin + SB2) was −172 pA/pF. The “INa: peak current density” value (7-8 weeks post-fertilization, Control + SB2) is listed as −168 pA/pF. Where the note is “early exposure of embryos”, the “Effect on INa and IK1 current densities in cells expressing 2057del2 plakoglobin” value is recorded as “marked normalization of these currents; also recorded: almost completely normalized these currents”; the “Effect on INa or IK1 current densities in control myocytes” value was “had no effect”. For the same compound, for the setting “isolated myocytes from transgenic fish treated in culture for 36 hr”, the “Effect on reduced INa and IK1 current densities, short-term exposure of isolated cells” value was “reversed reductions in INa and IK1 current densities”. The “Effect on reduced INa and IK1 current densities (summary statements)” value (listed as SB2168763) is listed as “rapid, near total recovery”.
